# Results taken from PMC11273453, “Pentaphosphorylation via the Anhydride of Dihydrogen Pentametaphosphate: Access to Nucleoside Hexa- and Heptaphosphates and Study of Their Interaction with Ribonuclease A” (ACS Central Science, 2024).
# Legend:
# Ribonuclease A (RNase A) [1] = target: T1, Ribonuclease A (RNase A) (Bos taurus, UniProt P61823); test: X-ray cocrystal structure; RNase A inhibition assay (Ki); type: biochemical
# T1 construct: gene RNASE1
# T1 sequence (P61823 27-150): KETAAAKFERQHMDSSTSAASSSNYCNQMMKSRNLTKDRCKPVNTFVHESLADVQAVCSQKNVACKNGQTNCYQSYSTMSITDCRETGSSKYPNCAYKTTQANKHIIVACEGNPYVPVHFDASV
# Ribonuclease A (RNase A) [2] = target: T1, Ribonuclease A (RNase A); test: […]{1H} NMR competition titration with RNase A·p3A (binding constant Ka); details: read-out: 31P{1H} NMR competition titration with RNase A.p3A (binding constant Ka) (converted)
# Ribonuclease A (RNase A) [3] = target: T1, Ribonuclease A (RNase A); test: direct […]{1H} NMR titration (binding constant Ka); details: read-out: direct 31P{1H} NMR titration (binding constant Ka) (converted)
# Ribonuclease A (RNase A) [4] = target: T1, Ribonuclease A (RNase A); test: X-ray cocrystal structure (soaking); FRET inhibition assay (Ki); […] NMR titration; type: biochemical
SMILES,Ki (Ribonuclease A (RNase A) [1]) [µM],Ki (Ribonuclease A (RNase A) [4]) [µM],also measured
O=c1ccn([C@@H]2O[C@H](COP(=O)(O)OP(=O)(O)OP(=O)(O)OP(=O)(O)OP(=O)(O)O)[C@@H](O)[C@H]2O)c(=O)[nH]1 [p5U],–,–,Kd (Ribonuclease A (RNase A) [2]): 0.0538 µM
"O=P1(O)OP(=O)(O)OP(=O)(O)OP(=O)(O)O1 [cP4i, tetrametaphosphate]",–,–,Kd (Ribonuclease A (RNase A) [3]): 23.5 µM
Nc1ncnc2c1ncn2[C@@H]1O[C@H](COP(=O)(O)OP(=O)(O)OP(=O)(O)OP(=O)(O)OP(=O)(O)OP(=O)(O)O)[C@@H](O)[C@H]1O [p6A],3.6 ± 0.6,–,–

# Continued, in another order:
Ki (Ribonuclease A (RNase A) [1]) [µM],Ki (Ribonuclease A (RNase A) [4]) [µM],SMILES,also measured
2.6 ± 0.4,–,Nc1ncnc2c1ncn2[C@@H]1O[C@H](COP(=O)(O)OP(=O)(O)OP(=O)(O)OP(=O)(O)OP(=O)(O)OP(=O)(O)OP(=O)(O)O)[C@@H](O)[C@H]1O [p7A],–
–,1.1 ± 0.2,O=c1ccn([C@@H]2O[C@H](COP(=O)(O)OP(=O)(O)OP(=O)(O)OP(=O)(O)OP(=O)(O)OP(=O)(O)O)[C@@H](O)[C@H]2O)c(=O)[nH]1 [p6U],–
–,1 ± 0.2,O=c1ccn([C@H]2O[C@@H](COP(=O)(O)OP(=O)(O)OP(=O)(O)OP(=O)(O)OP(=O)(O)OP(=O)(O)OP(=O)(O)O)[C@@H](O)[C@H]2O)c(=O)[nH]1 [p7U],–
